Measurements reported in publication PMC8143291, “Cytotoxicity and Microbicidal Activity of Commonly Used Organic Solvents: A Comparative Study and Application to a Standardized Extract from Vaccinium macrocarpon” (Toxics, 2021).

Columns and labels:
[1] = system: CCL-1 (transformed mouse fibroblasts, NCTC clone 929); assay: MTT dye-reduction cytotoxicity assay (ISO 10993-5); type: cell-based; conditions: solvent alone, 72 h, at least 70% of cells viable, n = 3
Excerpt: (§1) The cell lines utilized in this study included the human tumor lines A-375 (malignant melanoma) and A-431 (non-melanoma epidermoid squamous skin carcinoma) as well as the models for non-tumorigenic cells—HaCaT (immortalized human keratinocytes) and CCL-1^TM (transformed mouse fibroblasts, NCTC clone 929). The first three cell lines were obtained from CLS Cell Lines Service (GmbH, Eppelheim, Germany). CCL-1^TM was purchased from the American Type Culture Collection (ATCC, Manassas, VA, USA). Cells were maintained in a controlled environment—sterile cell culture flasks in a CO2 incubator Panasonic MCO-18AC (Panasonic Healthcare co., ltd, Oizumi-Machi, Japan) at 37 °C and a humidified atmosphere containing 5% CO2. CCL-1 was cultured in MEM with 10% heat-inactivated horse serum and 2 mM L-glutamine, and the cell culture medium for the rest of the cell lines was DMEM-HG with 4.5 g/L glucose with the addition of 10% heat-inactivated fetal bovine serum and 4 mM L-glutamine. Pen/strep (concentration of penicillin G sodium 10^5 Units/L and of streptomycin sulfate 100 mg/L) was added to both culture media. The cell lines were maintained as an adherent monolayer in a log phase. The cells were sub-cultivated about 1–3 times per week after the monolayer reached 80–90% confluence. The medium was removed from the flask, and the cell monolayer was washed with 3–5 mL PBS. The cells were incubated with 0.05% EDTA in PBS for 8–10 min, followed by the next step where all cell lines were subjected to enzyme cell detachment. HaCaT and CCL-1 monolayers were detached with 1 mL solution of trypsin/EDTA (0.1%/0.05% for HaCaT and 0.25% (w/v)/0.53 mM for CCL-1) and incubated for 2–5 min at 37 °C (for HaCaT) or at room temperature (for CCL-1 cells), whereas Accutase® was used for A-375 and A-431 lines. The incubation lasted until the separation and dispersion of the cells in the monolayer were observed using light microscopy. In the end, all cell lines were resuspended in 10 mL medium and centrifuged for 3 min at 300× g. The cell pellet was resuspended in fresh medium and sub-cultivated at a seeding density of 1.0 × 10^4 cells/cm^2.
(§2) The MTT test was performed in order to determine the median inhibitory (IC50) and MTC concentrations of the solvents and PAC according to Annex C, ISO 10993-5 [2, 21]. Briefly, 100 µL of the cell suspension (1 × 10^5 cells/mL) were seeded per well in 96-well plates with a flat bottom. The cells were incubated for 24 h, allowing them to enter the log phase of their growth. On the 24th hour, the cells were treated with the solvents or CystiCran® solutions in concentrations ranging between 0.004% and 2% volume fraction (v/v) and incubated further for 72 h. The incubation periods are following the recommendations of the FDA guide for the use of ISO 10993-1 [1]. At the end of the incubation period, 10 µL of an MTT solution (5 mg/mL) were added to each well, and the plates were kept at 37 °C for 2 hours. Thereafter, the medium was aspirated, and the formed formazan crystals were dissolved in 100 μL/well of 2-propanol supplemented with 5% formic acid. The same solvent was used as a blank. Untreated cells were considered as a negative control. […] The absorption was measured at 540 nm (reference filter at 690 nm) on a microplate reader ELx800 (BioTek Instruments, Inc., Winooski, VT, Winooski, VT, USA).
(§3) The IC50 values from the MTT assay were evaluated with a non-linear regression analysis (Curve fit, GraphPad Prizm 6.01 software, GraphPad Software Inc., San Diego, CA, USA) using sigmoidal concentration–response curves. The cell viability is presented as a percentage of the untreated control. At least four wells were seeded for every concentration. Three independent assays were performed (n = 3).

[2] = system: HaCaT (immortalized human keratinocytes); assay: MTT dye-reduction cytotoxicity assay (ISO 10993-5); type: cell-based; conditions: solvent alone, 72 h, at least 70% of cells viable, n = 3
Excerpt: as §1, §2, §3

[3] = system: breast cancer, mouse macrophage and human umbilical vein endothelial cells; parameters: method as in doi:10.17795/ajmb-33453; conditions: cited from earlier work
Bacillus subtilis = conditions: cited from earlier work

For `CN(C)C=O` [DMF, N,N-dimethylformamide], the “MTC (maximum tolerated concentration)” value [1] is listed as 0.03 % (v/v), the “MTC (maximum tolerated concentration)” value [2] is listed as 0.03 % (v/v) and the “maximum tolerated concentration (MTC) / applicable concentration” value [3] is listed as 0.1 % v/v. For the same compound, the tolerated concentration (Bacillus subtilis) was no less than 10 % v/v.
